Assay results reported in publication PMC10378394 (Current Issues in Molecular Biology, 2023).

Columns and labels:
[1] = biological target: PRK2(h) (Homo sapiens, UniProt Q16513); assay: Eurofins kinase assay
[2] = biological target: PDK1(h) (Homo sapiens, UniProt O15530); assay: Eurofins kinase assay
[3] = biological target: PKCμ(h) (Homo sapiens, UniProt Q15139); assay: Eurofins kinase assay
[4] = biological target: CaMKIV(h) (Homo sapiens, UniProt Q16566); assay: Eurofins kinase assay
[5] = biological target: CK1δ(h) (Homo sapiens, UniProt P48730); assay: Eurofins kinase assay
[6] = tested on: HT29 (BRAF V600E); assay: Cell proliferation assay (CellTiter-Glo); conditions: Homo sapiens, HT-29, 72 h
Experimental: (§3) To assess cell viability, the CellTiter-Glo Luminescent Cell Viability Assay Reagent (Promega, Fitchburg, WI, USA) was added to each well. The assay measured ATP levels as an indicator of cell viability. All data points were normalized to the control samples treated with dimethyl sulfoxide when determining IC50 values. Statistical calculations and data analysis, including IC50 determination, were performed using GraphPad Prism software.

[7] = tested on: MEK and ERK phosphorylation; assay: Western blot in LS513 cells; format: cell-based, human
Experimental: (§1) In 6-well plates, LS513 cells were seeded and allowed to adhere and proliferate for 24 h. […] After treatment, the cells were harvested using RIPA lysis buffer to extract cellular proteins. The cell lysates were subjected to Western blot analysis. Antibodies specific to phosphorylated epidermal growth factor receptor (p-EGFR, Cell Signaling Technology, Danvers, MA, USA, #2234S), epidermal growth factor receptor (EGFR, Cell Signaling Technology #2232S), phosphorylated vascular endothelial growth factor receptor (p-VEGFR, Cell Signaling Technology #3770S), vascular endothelial growth factor receptor (VEGFR, Cell Signaling Technology #2479S), phosphorylated Akt (p-Akt, Cell Signaling Technology #9271S), Akt (Cell Signaling Technology #9272S), phosphorylated MEK (p-MEK, Cell Signaling Technology #9121S), MEK (Cell Signaling Technology #9122), phosphorylated ERK (p-ERK, Cell Signaling Technology #9101S), and ERK (Cell Signaling Technology #9102S) were used for protein detection. The antibodies were diluted 1:1000 for the specific target proteins. In addition, a β-actin antibody (Sigma-Aldrich, Seoul, Republic of Korea, #A5441) diluted 1:5000 was used as a loading control. Bone-marrow-derived macrophages (BMDMs) were plated and allowed to adhere and proliferate for 24 h. […] Subsequently, the cells were stimulated with recombinant human angiopoietin-2 (R&D Systems, Minneapolis, MN, USA, #623-AN) and CSF1 (Peprotech, #300-25) for 15 min. After stimulation, protein samples were obtained from the cells. The cell lysates were analyzed by Western blot using specific antibodies, such as p-CSF1R (Cell Signaling, #14591S), CSF1R (Cell Signaling, #67455S), p-TIE2 (Cell Signaling, #4221S), and TIE2 (Santa Cruz Biotechnology, Dallas, TX, USA, #sc-293414), to detect and analyze the respective proteins.

[8] = tested on: AKT phosphorylation; assay: Western blot in LS513 cells; format: cell-based, human; conditions: LS513, 1 h treatment
Experimental: as §1

[9] = biological target: PAK2(h) (Homo sapiens, UniProt Q13177); assay: Eurofins kinase assay
Sequence of PAK2(h) (Q13177 whole entry): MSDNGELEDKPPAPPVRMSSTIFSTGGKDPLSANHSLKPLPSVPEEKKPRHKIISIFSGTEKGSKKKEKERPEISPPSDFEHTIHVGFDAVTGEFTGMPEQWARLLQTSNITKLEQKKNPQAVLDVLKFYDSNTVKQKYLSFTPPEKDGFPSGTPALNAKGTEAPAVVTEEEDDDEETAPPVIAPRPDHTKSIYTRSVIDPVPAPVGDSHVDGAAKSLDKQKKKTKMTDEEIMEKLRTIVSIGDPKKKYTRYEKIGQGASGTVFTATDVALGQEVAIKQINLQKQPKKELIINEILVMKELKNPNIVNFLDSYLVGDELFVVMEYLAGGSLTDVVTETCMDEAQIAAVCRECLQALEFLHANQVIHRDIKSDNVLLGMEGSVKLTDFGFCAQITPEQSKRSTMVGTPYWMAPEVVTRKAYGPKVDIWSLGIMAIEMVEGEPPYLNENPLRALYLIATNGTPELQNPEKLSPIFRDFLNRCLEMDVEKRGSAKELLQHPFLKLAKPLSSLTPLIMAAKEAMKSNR

[10] = biological target: ATM(h) (Homo sapiens, UniProt Q13315); assay: Eurofins kinase assay
[11] = biological target: Rsk3(h) (Homo sapiens, UniProt Q15349); assay: Eurofins kinase assay
Sequence of Rsk3(h) (Q15349 whole entry): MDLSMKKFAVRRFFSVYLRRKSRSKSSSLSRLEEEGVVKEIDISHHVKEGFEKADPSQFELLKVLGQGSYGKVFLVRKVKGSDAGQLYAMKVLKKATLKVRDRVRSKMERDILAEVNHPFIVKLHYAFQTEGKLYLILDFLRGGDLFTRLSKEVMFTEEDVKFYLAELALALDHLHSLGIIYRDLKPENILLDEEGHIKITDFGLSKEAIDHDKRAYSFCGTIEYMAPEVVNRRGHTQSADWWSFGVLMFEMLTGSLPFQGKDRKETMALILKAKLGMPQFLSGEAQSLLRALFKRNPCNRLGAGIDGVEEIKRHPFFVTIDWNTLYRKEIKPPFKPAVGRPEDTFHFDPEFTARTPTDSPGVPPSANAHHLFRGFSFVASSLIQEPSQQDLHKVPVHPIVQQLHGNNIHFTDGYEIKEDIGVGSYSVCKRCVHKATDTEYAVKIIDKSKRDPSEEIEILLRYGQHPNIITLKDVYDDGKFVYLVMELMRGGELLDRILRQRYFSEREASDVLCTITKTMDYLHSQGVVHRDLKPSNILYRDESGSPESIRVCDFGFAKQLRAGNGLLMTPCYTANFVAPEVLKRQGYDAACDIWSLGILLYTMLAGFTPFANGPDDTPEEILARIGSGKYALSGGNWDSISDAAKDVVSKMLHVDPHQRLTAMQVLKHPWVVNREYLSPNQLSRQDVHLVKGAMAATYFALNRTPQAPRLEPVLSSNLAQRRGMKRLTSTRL

[12] = biological target: Fyn(h) (Homo sapiens, UniProt P06241); assay: Eurofins kinase assay
Sequence of Fyn(h) (P06241 whole entry): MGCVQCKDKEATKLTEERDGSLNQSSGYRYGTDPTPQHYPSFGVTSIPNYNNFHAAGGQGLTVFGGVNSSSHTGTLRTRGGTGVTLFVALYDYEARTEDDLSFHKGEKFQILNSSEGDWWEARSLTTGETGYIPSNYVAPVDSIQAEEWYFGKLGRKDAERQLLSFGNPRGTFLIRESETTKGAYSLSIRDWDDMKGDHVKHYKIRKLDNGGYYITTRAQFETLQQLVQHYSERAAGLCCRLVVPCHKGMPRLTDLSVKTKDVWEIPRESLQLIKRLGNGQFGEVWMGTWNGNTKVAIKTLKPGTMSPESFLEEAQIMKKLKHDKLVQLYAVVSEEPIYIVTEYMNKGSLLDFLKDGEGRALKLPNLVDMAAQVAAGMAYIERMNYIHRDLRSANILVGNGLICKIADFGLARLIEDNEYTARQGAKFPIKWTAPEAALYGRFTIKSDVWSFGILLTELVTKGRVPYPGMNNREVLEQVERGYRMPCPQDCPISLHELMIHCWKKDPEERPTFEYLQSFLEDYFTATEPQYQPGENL

[13] = tested on: SW620 (KRAS G12V); assay: Cell proliferation assay (CellTiter-Glo); conditions: Homo sapiens, SW-620, 72 h
Experimental: as §3

[14] = biological target: PKCθ(h) (Homo sapiens, UniProt Q04759); assay: Eurofins kinase assay
[15] = biological target: CRAF (Homo sapiens, UniProt P04049); assay: Eurofins kinase assay
[16] = 2-week repeated oral DRF toxicity study; format: in vivo
[17] = biological target: CDK2/cyclinA(h) (Homo sapiens, UniProt P24941); assay: Eurofins kinase assay
[18] = biological target: FGFR3(h) (Homo sapiens, UniProt P22607); assay: Eurofins kinase assay
Sequence of FGFR3(h) (P22607 23-806): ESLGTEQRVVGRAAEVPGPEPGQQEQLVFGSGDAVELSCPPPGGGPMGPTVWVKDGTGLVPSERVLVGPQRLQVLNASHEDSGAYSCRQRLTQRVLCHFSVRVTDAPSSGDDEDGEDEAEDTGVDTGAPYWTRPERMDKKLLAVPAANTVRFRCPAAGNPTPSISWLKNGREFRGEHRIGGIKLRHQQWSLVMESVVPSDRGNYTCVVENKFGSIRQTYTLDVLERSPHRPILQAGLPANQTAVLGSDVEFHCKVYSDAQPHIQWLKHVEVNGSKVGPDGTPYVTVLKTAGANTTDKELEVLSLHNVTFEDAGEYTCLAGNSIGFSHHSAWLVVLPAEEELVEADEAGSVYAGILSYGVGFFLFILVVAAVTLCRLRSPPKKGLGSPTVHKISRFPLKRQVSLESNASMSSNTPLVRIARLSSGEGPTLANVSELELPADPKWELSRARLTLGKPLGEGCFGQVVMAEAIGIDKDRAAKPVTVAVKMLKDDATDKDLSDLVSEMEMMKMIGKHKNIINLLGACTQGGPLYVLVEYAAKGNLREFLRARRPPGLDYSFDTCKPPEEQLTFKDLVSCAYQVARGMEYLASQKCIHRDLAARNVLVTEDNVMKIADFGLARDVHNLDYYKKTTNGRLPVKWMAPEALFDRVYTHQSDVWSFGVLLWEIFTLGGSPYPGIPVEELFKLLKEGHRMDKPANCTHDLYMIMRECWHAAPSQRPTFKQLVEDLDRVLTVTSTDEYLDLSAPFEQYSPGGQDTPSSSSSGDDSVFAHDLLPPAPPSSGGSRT

[19] = biological target: BRAF (Homo sapiens, UniProt P15056); assay: Eurofins kinase assay
[20] = biological target: Rsk2(h) (Homo sapiens, UniProt P51812); assay: Eurofins kinase assay
[21] = tested on: HCT116 (KRAS G13D) xenograft; assay: In vivo efficacy, xenograft; set-up: species or system BALB/c nude mice; conditions: 16 days
Experimental: (§2) Human-derived colorectal cancer cell lines, LS513, HCT-116, and HT29, were subcutaneously transplanted into 6-week-old female BALB/c nude mice to establish tumor models. Additionally, the mouse cancer cell line MC38 was subcutaneously transplanted into 6-week-old female and C57BL/6 mice to induce tumor formation. […]. The treatments were administered orally once daily for 2 weeks based on the growth rate observed in the vehicle group. Tumor volume was evaluated three times a week using the formula Tumor volume (TV) = (tumor short diameter ^2 × tumor long diameter)/2. The body weight of the mice was measured three times a week to assess potential toxicity in vivo. […]

[22] = tested on: HT29 (BRAF V600E) xenograft; assay: In vivo efficacy, xenograft; set-up: species or system BALB/c nude mice
Experimental: as §2

[23] = tested on: LS513 (KRAS G12D) xenograft; assay: In vivo efficacy, xenograft; set-up: species or system BALB/c nude mice; conditions: day 17
Experimental: as §2

Sequence of CaMKIV(h) (Q16566 whole entry): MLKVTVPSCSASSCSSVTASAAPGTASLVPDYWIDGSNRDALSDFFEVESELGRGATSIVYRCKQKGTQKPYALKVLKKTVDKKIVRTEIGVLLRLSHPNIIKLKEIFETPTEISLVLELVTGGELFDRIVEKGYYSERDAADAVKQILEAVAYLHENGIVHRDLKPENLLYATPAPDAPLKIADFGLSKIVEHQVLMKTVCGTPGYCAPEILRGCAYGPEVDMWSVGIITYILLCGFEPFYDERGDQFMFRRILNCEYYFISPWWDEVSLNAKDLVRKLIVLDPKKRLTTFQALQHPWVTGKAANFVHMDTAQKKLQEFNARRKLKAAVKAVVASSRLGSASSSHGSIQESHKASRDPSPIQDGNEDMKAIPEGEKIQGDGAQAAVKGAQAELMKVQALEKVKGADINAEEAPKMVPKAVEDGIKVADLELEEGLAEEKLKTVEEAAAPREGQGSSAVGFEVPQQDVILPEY
Sequence of PKCμ(h) (Q15139 whole entry): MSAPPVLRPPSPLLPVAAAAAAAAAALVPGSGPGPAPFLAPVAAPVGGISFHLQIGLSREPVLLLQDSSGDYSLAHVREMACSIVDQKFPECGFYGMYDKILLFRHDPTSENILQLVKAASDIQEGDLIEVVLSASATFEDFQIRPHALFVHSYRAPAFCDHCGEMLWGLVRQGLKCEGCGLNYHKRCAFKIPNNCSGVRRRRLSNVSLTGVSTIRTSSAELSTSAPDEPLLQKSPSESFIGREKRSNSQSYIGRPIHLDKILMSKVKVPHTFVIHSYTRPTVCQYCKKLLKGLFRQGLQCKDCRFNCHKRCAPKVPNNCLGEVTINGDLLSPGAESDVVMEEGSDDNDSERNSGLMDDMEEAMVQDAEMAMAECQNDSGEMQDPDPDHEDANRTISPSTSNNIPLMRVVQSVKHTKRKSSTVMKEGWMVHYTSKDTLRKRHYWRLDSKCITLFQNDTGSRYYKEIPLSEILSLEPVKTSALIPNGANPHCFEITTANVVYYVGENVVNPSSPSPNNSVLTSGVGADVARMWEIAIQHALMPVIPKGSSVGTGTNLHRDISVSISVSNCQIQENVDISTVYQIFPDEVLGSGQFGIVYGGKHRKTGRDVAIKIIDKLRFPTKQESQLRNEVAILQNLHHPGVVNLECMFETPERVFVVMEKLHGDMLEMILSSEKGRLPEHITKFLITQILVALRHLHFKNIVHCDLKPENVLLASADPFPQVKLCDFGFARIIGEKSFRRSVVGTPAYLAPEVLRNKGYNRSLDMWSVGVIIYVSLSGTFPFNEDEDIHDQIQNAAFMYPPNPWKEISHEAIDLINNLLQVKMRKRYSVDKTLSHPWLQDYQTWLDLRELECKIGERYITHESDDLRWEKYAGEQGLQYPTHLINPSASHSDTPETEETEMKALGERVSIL
Sequence of PRK2(h) (Q16513 whole entry): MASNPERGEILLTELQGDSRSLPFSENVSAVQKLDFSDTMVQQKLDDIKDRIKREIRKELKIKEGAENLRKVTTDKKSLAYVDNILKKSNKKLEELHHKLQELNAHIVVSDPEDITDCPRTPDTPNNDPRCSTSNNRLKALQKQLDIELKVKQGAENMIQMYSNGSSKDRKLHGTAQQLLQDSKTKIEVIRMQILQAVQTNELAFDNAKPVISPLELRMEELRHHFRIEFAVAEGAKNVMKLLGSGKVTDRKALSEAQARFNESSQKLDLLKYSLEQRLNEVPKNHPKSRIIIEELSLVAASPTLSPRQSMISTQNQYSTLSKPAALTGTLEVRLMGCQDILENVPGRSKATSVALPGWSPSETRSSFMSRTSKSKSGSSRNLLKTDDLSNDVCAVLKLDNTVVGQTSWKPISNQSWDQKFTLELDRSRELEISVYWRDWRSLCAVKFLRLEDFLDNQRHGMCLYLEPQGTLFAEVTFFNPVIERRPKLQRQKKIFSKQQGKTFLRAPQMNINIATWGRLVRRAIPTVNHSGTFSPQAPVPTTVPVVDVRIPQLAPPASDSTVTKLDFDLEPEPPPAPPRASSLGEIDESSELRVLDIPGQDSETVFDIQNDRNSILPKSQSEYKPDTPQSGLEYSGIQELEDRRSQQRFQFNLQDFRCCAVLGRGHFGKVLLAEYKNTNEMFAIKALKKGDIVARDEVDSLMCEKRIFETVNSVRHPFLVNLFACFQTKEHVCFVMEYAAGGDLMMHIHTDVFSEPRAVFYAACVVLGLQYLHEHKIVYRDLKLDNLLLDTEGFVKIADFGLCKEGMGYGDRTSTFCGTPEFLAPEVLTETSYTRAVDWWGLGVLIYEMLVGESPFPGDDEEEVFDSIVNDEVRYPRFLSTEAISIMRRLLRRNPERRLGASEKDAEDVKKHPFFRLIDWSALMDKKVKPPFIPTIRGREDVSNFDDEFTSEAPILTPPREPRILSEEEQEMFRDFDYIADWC

## O=C(Nc1cc(Nc2ncccc2-c2ncnc3[nH]cnc23)ccc1F)c1cc(C(F)(F)F)cc(C(F)(F)F)c1 [SJ-C1044, N-(5-(3-(9H-purin-6-yl)pyridin-2-ylamino)-2-fluorophenyl)-3,5-bis(trifluoromethyl)benzamide]
[1]
  inhibition at 10 µM: -2%
[2]
  inhibition at 10 µM: 0%
[3]
  inhibition at 10 µM: -3%
[4]
  inhibition at 10 µM: 2%
[5]
  inhibition at 10 µM: 0%
[6]
  GI50: 247 nM
[7]; KRAS-mutated colorectal cancer cells
  paradoxical activation of MEK and ERK: without any evidence of paradoxical activation
[7]; LS513, 1 h treatment
  MEK and ERK phosphorylation: inhibited MEK and ERK phosphorylation potently
[8]
  AKT phosphorylation: no detectable difference
[9]
  inhibition at 10 µM: -1%
[10]
  inhibition at 10 µM: 12%
[11]
  inhibition at 10 µM: 4%
[12]
  inhibition at 10 µM: 27%
[13]
  GI50: 628 nM
[14]
  inhibition at 10 µM: 5%
[15]
  inhibition at 10 µM: 86%
[16]; 250 mg/kg oral
  2-week repeated oral toxicity: no toxicity
[16]; 500 mg/kg oral
  2-week repeated oral toxicity: decreased body weight
[17]
  inhibition at 10 µM: -8%
[18]
  inhibition at 10 µM: 48%
[19]
  inhibition at 10 µM: 68%
[20]
  inhibition at 10 µM: -4%
[21]; 20 mg/kg po QD
  TGI: 72%
[21]; 40 mg/kg po QD
  TGI: 87%
[21]; 80 mg/kg po QD
  TGI: 107%
[22]; 20 mg/kg po QD
  TGI: 58%
[22]; 40 mg/kg po QD
  TGI: 94%
[22]; 80 mg/kg po QD
  TGI: 117%
[23]; 20 mg/kg po QD
  TGI: 50%
[23]; 40 mg/kg po QD
  TGI: 63%
[23]; 80 mg/kg po QD
  TGI: 66%
